Results on 25 molecules are retold here after patent US11667652B2, “MCL1 inhibitors” (Gilead Sciences, Inc., priority 2019, dated 2023).

The target of assay [1] is MCL1/Bim (Homo sapiens (Human), UniProt Q07820). The experiment in a line: MCL1/Bim Binding AlphaLISA Assay. To be noted: recombinant human 6xHis-MCL1 (171-327), biotinylated Bim peptide (51-76). The gist of the method: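 AlphaLISA with 0.0625 nM human 6×His-MCL1 (171-327) and 0.0625 nM biotinylated Bim (51-76) peptide in 20 mM Hepes pH 7.5, 150 mM NaCl, 0.002% Brij 35, 1 mM DTT, 0.01% BSA. Compound preincubated with MCL1 1 h, Bim added 2 h, then acceptor and donor beads 1 h each; % inhibition versus DMSO and no-protein/peptide controls.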

Assay [2] relates to SKBR3 cells. The experiment in a line: SKBR3 Cell Viability Assay. In kind it is cell-based. To be noted: CellTiter Glo, read-out: MCL1 CV SKBR3 EC50. In short, it runs like this: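 Viability was measured by CellTiter-Glo luminescence after 72 h at 37° C, 5% CO2. Each well held 6,000 SKBR3 cells in McCoy's 5A/10% FBS dispensed onto serially diluted compound. Percent inhibition is relative to DMSO and 10 μM puromycin controls.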

[3] abbreviates: Homo sapiens, SK-BR-3, 72 hours.

Where two headings read alike, the source gives them in different places.

Sequence of MCL1/Bim (Q07820 171-327): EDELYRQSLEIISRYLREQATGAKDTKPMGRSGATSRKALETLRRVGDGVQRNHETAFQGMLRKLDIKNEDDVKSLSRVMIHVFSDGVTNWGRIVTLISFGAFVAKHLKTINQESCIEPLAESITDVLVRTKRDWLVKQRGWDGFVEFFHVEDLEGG

Regarding `COc1nn(C)cc1C(=O)N[S@@]1(=O)=NC(=O)c2ccc3c(c2)N(C[C@@H]2CC[C@H]2[C@H](O)/C=C/C[C@H](C)C1)C[C@@]1(CCCc2cc(Cl)ccc21)CO3` [Example 39], the IC50 in assay [1] was found to be 0.201 nM. Further, in assay [2] (setting [3]), the EC50 was 146 nM.
In the same order, the values of `CO[C@H]1/C=C/C[C@H](C)[C@@H](C)[S@@](=O)(NC(=O)COC2CCOCC2)=NC(=O)c2ccc3c(n2)N(C[C@@H]2CC[C@H]21)C[C@@]1(CCCc2cc(Cl)ccc21)CO3` [Example 203] are 0.12 nM and 156 nM.
For `C=CCO[C@@H]1/C=C/C[C@H](C)C[S@@](=O)(NC(=O)c2cn(C)nc2OC)=NC(=O)c2ccc3c(c2)N(C[C@@H]2CC[C@H]21)C[C@@]1(CCCc2cc(Cl)ccc21)CO3` [Example 55], in assay [1], the IC50 turned out to be 0.332 nM. Moreover, the EC50 in assay [2] (72 hours) worked out at 426 nM.
For the molecule `CO[C@H]1/C=C/C[C@H](C)C[S@@](=O)(Nc2nc(C)nc3nn(C)cc23)=NC(=O)c2ccc3c(c2)N(C[C@@H]2CC[C@H]21)C[C@@]1(CCCc2cc(Cl)ccc21)CO3` [Example 12], the IC50 in assay [1] worked out at 0.129 nM. Moreover, the half-maximal effective concentration (EC50) in assay [2] (setting [3]) was found to be 38.7 nM.
`COc1nn(C)cc1C(=O)N[S@@]1(=O)=NC(=O)c2ccc3c(c2)N(C[C@@H]2CC[C@H]2[C@@H](OC)C[C@@H]2[C@H](OC[C@@H]2C)[C@H](C)C1)C[C@@]1(CCCc2ccccc21)CO3` [Example 148]: the IC50 in assay [1] is 0.426 nM. Besides, the EC50 in assay [2] (72 hours) is 1720 nM.
Turning to `CO[C@H]1/C=C/C[C@H](C)[C@@H](C)[S@@](=O)(NC(=O)c2cnn(C)c2)=NC(=O)c2ccc3c(c2)N(C[C@@H]2CC[C@H]21)C[C@]1(CO3)SCCc2cc(Cl)ccc21` [Example 180], the concentration for half-maximal inhibition (IC50) in assay [1] is 0.06 nM. For the same molecule, in assay [2] (setting [3]), the EC50 is 24.9 nM.
In the same order, the values of `COc1nn(C)cc1C(=O)N[S@@]1(=O)=NC(=O)c2ccc3c(c2)N(C[C@@H]2CC[C@H]2[C@@H](OC)/C=C/C(O)(CC(=O)N(C)C)[C@H](C)C1)C[C@@]1(CCCc2cc(Cl)ccc21)CO3` (mixture of isomers) [Example 124] are 0.033 nM and 10.1 nM.
In the same order, the values of `COc1nn(C)cc1C(=O)N[S@@]1(=O)=NC(=O)c2ccc3c(c2)N(C[C@@H]2CC[C@H]2[C@H](OC)[C@@H](OC)/C=C\[C@H](C)C1)C[C@@]1(CCCc2cc(Cl)ccc21)CO3` [Example 132] are 0.833 nM and 1020 nM.
Consider `CCCO[C@H]1/C=C/C[C@H](C)C[S@@](=O)(NC(=O)c2cn(C)nc2OC)=NC(=O)c2ccc3c(c2)N(C[C@@H]2CC[C@H]21)C[C@@]1(CCCc2cc(Cl)ccc21)CO3` (mixture of isomers) [Example 137], for which the IC50 in assay [1] amounted to 1.77 nM. Besides, the EC50 in assay [2] (72 hours) turned out to be 561 nM.
Take `CO[C@H]1/C=C/C[C@H](C)C[S@@](=O)(Nc2cncc(C#N)n2)=NC(=O)c2ccc3c(c2)N(C[C@@H]2CC[C@H]21)C[C@@]1(CCCc2cc(Cl)ccc21)CO3` [Example 6]: in assay [1], the IC50 was 0.891 nM. Moreover, in assay [2] (setting [3]), the EC50 came out at 4390 nM.
As for `COc1nn(C)cc1C(=O)N[S@@]1(=O)=NC(=O)c2ccc3c(c2)N(C[C@@H]2CC[C@H]2[C@@](O)(CC(=O)N2CCN4CCOCC4C2)/C=C/C[C@H](C)C1)C[C@@]1(CCCc2cc(Cl)ccc21)CO3` (some centres unmarked) [Example 102], the IC50 in assay [1] stood at 0.026 nM. Further, in assay [2] (72 hours), the EC50 was determined as 16.1 nM.
As for `C[C@H]1C/C=C/[C@H](OC(=O)c2cnn(C)c2)[C@@H]2CC[C@H]2CN2C[C@@]3(CCCc4cc(Cl)ccc43)COc3ccc(cc32)C(=O)N=[S@](=O)(NC(=O)c2cnn(C)c2)C1` [Example 51], the half-inhibitory concentration (IC50) in assay [1] was determined as 0.222 nM. Besides, the EC50 in assay [2] (setting [3]) was found to be 433 nM.
As for `COc1nn(C)cc1C(=O)N[S@@]1(=O)=NC(=O)c2ccc3c(n2)N(C[C@@H]2CC[C@H]2[C@@H](OC)/C=C/[C@@H](OC)[C@H](C)C1)C[C@@]1(CCCc2cc(Cl)ccc21)CO3` [Example 197], in assay [1], the IC50 came out at 0.35 nM. In addition, the EC50 in assay [2] (72 hours) is 516 nM.
In the case of `C[C@@H]1[C@@H](C)C/C=C/[C@H](O)[C@@H]2CC[C@H]2CN2C[C@@]3(CCCc4cc(Cl)ccc43)COc3ccc(cc32)C(=O)N=[S@]1(=O)Nc1ncnc2nn(C)cc12` [Example 34], the IC50 in assay [1] amounted to 0.088 nM. For the same molecule, the EC50 in assay [2] (setting [3]) turned out to be 25.4 nM.
For the molecule `COc1nn(C)cc1C(=O)N[S@@]1(=O)=NC(=O)c2ccc3c(c2)N(C[C@@H]2CC[C@H]2[C@@H](OC)/C=C/[C@@H](OC)[C@H](C)[C@H]1C)C[C@@]1(CCCc2cc(Cl)ccc21)CO3` [Example 69], the IC50 in assay [1] stood at 2.07 nM. In addition, the EC50 in assay [2] (72 hours) stood at 1000 nM.
As to `CO[C@H]1/C=C/C[C@H](C)[C@@H](C)[S@@](=O)(NC(=O)COC2CCOCC2)=NC(=O)c2ccc3c(c2)N(C[C@@H]2CC[C@H]21)C[C@]1(CO3)C[C@@H]2C[C@@H]2c2cc(Cl)ccc21` [Example 169], in assay [1], the IC50 came out at 0.048 nM. In addition, the EC50 in assay [2] (setting [3]) was 215 nM.
In the same order, the values of `C[C@H]1C/C=C/[C@H](O)[C@@H]2CC[C@H]2CN2C[C@@]3(CCCc4cc(Cl)ccc43)COc3ccc(cc32)C(=O)N=[S@](=O)(Nc2nc3nnnn3c3nn(C)cc23)C1` (mixture of isomers) [Example 31] are 0.064 nM and 4390 nM.
Take `COc1nn(C)cc1C(=O)N[S@@]1(=O)=NC(=O)c2ccc3c(c2)N(C[C@@H]2CC[C@H]2[C@@H](OC)/C=C/[C@H](OC(C)=O)[C@H](C)[C@H]1C)C[C@@]1(CCCc2cc(Cl)ccc21)CO3` [Example 91]: the IC50 in assay [1] stood at 0.177 nM. Also, in assay [2] (72 hours), the EC50 was determined as 88.4 nM.
Regarding `C[C@H]1C/C=C/[C@H](O)[C@@H]2CC[C@H]2CN2C[C@@]3(CCCc4cc(Cl)ccc43)COc3ccc(cc32)C(=O)N=[S@](=O)(Nc2nc(N3CCOCC3)nc3nn(C)cc23)C1` [Example 33], the half-inhibitory concentration (IC50) in assay [1] was found to be 0.019 nM. In addition, the EC50 in assay [2] (setting [3]) was 30.1 nM.
Turning to `CCO/C1=C/C[C@H](OC)[C@@H]2CC[C@H]2CN2C[C@@]3(CCCc4cc(Cl)ccc43)COc3ccc(cc32)C(=O)N=[S@](=O)(NC(=O)c2cn(C)nc2OC)[C@H](C)[C@H]1C` [Example 158], in assay [1], the IC50 amounted to 3.86 nM. Besides, the 50% effective concentration (EC50) in assay [2] (72 hours) worked out at 1950 nM.
As for `CO[C@H]1/C=C/C[C@H](C)C[S@@](=O)(NC(=O)c2cc3n(c2)CCOC3)=NC(=O)c2ccc3c(n2)N(C[C@@H]2CC[C@H]21)C[C@@]1(CCCc2cc(Cl)ccc21)CO3` [Example 186], the IC50 in assay [1] came out at 0.07 nM. The EC50 in assay [2] (setting [3]) was determined as 26.6 nM.
In the same order, the values of `C[C@H]1C/C=C/[C@H](O)[C@@H]2CC[C@H]2CN2C[C@@]3(CCCc4cc(Cl)ccc43)COc3ccc(cc32)C(=O)N=[S@](=O)(Nc2nc(Cl)nc3nn(C)cc23)C1` [Example 30] are 0.03 nM and 930 nM.
On to `COc1nn(C)cc1C(=O)N[S@@]1(=O)=NC(=O)c2ccc3c(c2)N(C[C@@H]2CC[C@H]2C(O)(C#CCN(C)C)/C=C/C[C@H](C)C1)C[C@@]1(CCCc2cc(Cl)ccc21)CO3` (some centres unmarked) [Example 110], for which the IC50 in assay [1] is 0.045 nM. For the same molecule, in assay [2] (72 hours), the concentration for a half-maximal effect (EC50) stood at 27.6 nM.
Take `COc1nn(C)cc1C(=O)N[S@@]1(=O)=NC(=O)c2ccc3c(c2)N(C[C@@H]2CC[C@H]2[C@@H](OC)C[C@H]2CC(O)O[C@@H]2[C@H](C)C1)C[C@@]1(CCCc2cc(Cl)ccc21)CO3` (some centres unmarked) [Example 139]: the IC50 in assay [1] is 0.071 nM. For the same molecule, the EC50 in assay [2] (setting [3]) was determined as 198 nM.
On to `COc1nn(C)cc1C(=O)N[S@@]1(=O)=NC(=O)c2ccc3c(c2)N(C[C@@H]2CC[C@H]2[C@@H](OC)C#CC[C@H](C)C1)C[C@@]1(CCCc2cc(Cl)ccc21)CO3` [Example 37], for which the IC50 in assay [1] stood at 0.04 nM. In addition, the EC50 in assay [2] (setting [3]) came out at 57.7 nM.
